Several values for one entry are separate records, joined by “and”; a condition that tells them apart may be missing. Equal entries are not always repeated.
Columns and labels:
Assay type in all cases: cell-based
[1] = target: T1, KCa3.1 channel in A549-3R cells (Homo sapiens, UniProt O15554); assay: Staining of living A549-3R cells (Protocol 2)
T1 construct: the non-small cell lung cancer cell line A549-3R with a high expression of the KCa3.1 channel was employed; endogenous in cells; host or cells: A549-3R cells
Procedure: The cells were used without fixation. After incubation of the cells for 24 h (Section 2.10.1), the medium was removed, and the cells were washed three times with 1 mL of PBS. […]
(§1) An Axiovert 200 inverted microscope (Carl Zeiss AG, Jena, Germany) with a ×100 oil immersion objective and a digital camera (SPOT RT SE from Diagnostic Instruments Inc., Livingston, UK) were used. The camera was controlled by MetaVue software (version 6.3r6, Visitron, Germany). Two different filter sets were employed, the FITC filter set (Carl Zeiss Filter Set 10 bandwidth excitation filter 450–490, color splitter 510, bandpass filter 515–565) and the TRITC filter set (Carl Zeiss Filter Set 15, bandpass excitation filter 546/12, dichroic mirror 580, emission filter Long Pass 590).
(§2) Using the free imaging software ImageJ (1.53f51, NIH, USA), squares with an edge length of 50 × 50 pixels, corresponding to an area of 9 µm^2, were randomly placed in a cell and signals with Full Width at Half Maximum (FWHM) of ≤5 pixels (~300 nm) were counted as a KCa3.1 channel. For the evaluation, 7 squares were analyzed.
In the next experiment, living A549-3R cells were stained with 10b.

[2] = target: T1, KCa3.1 channel in A549-3R cells; assay: Staining of fixed A549-3R tumor cells (Protocol 1), fluorescence microscopy; details: 10 min, 4 °C
Procedure: For the fixation of the cells, the DMEM medium was removed from the glass bottom dish after incubation for 24 h, and the cells were washed with 1 mL of PBS. Subsequently, 1 mL of 4% paraformaldehyde in PBS solution was added to the glass bottom dish and the mixture was incubated for 30 min at room temperature. Thereafter, the cells were washed five times with 1 mL of PBS and used for the cell staining experiments.
After fixation of the cells (Section 2.10.2), 300 µL of the 10 µM staining solution was added to the glass bottom dish. The cells were incubated for 10 min at 4 °C in a dark chamber. After incubation, the cells were washed five times with 1 mL of PBS and used subsequently for fluorescence microscopy.
as §1, §2
For the staining experiments, the non-small cell lung cancer cell line A549-3R with a high expression of the KCa3.1 channel was employed. An optimized staining protocol (Protocol 1) described previously was followed to analyze the imaging properties of the fluorescent probes. In brief, the 10 µM solution of the senicapoc–dye conjugate in PBS was added to adherent A549-3R cells in a glass bottom dish and the set-up was incubated for 10 min at 4 °C in a dark chamber. After careful washing, the cells were analyzed with a fluorescence microscope.
The images were analyzed with respect to size and density of the fluorescent dots. For this purpose, a square with a size of 50 × 50 pixels was randomly placed on the cell images using ImageJ. The intensities of the signals within the square were analyzed to calculate the Full Width at Half Maximum (FWHM) for each selected dot, which represents a measure for the signal size. For the accurate representation of a single KCa3.1 channel, the FWHM should be in the range of five pixels. Signals with a FWHM of ≤5 pixels within the square were regarded as labeled KCa3.1 channels and the number of identified channels was used to determine the density of the ion channels on the cells (Figure S8, Supplementary Materials).

[3] = target: T1, KCa3.1 channel in A549-3R cells; assay: Co-staining of permeabilized A549-3R cells with fluorescent probe and antibodies (Protocols 7a and 7b); details: for Average Green (in % ± SD): green = channels stained with 10b; for Average Red (in % ± SD): red = channels stained with antibodies
Procedure: The cells were stained with antibodies as described in Protocol 6. Afterwards, the cells were stained with 300 µL of staining solution and the mixture was incubated for 10 min at 4 °C in a dark chamber. Subsequently, the cells were washed five times with 1 mL of PBS and were used for fluorescence microscopy.
The cells were treated as described in Protocol 5 to permeabilize the cells. Subsequently, staining solution was added and the cells were incubated for 10 min as described in Protocol 1. After washing the cells three times with PBS, Protocol 6 for the antibody staining was performed. Subsequently, the cells were used for fluorescence microscopy.
For the co-staining experiments, the permeabilized A549-3R cells were first incubated with the antibodies and subsequently stained with bodipy-labeled senicapoc derivative 10b for 10 min (protocol 7a). The images were analyzed with the FITC filter set to observe the fluorescence generated by 10b and the TRITC filter set to observe the fluorescence emitted by the secondary antibody (Figure 5). In a further experiment, the order of staining modalities was reversed, i.e., the cells were first labeled with fluorescent probe 10b for 10 min and second with the antibodies (Figure 6).
The obtained green, red and yellow dots were analyzed as described in the cell staining experiments above. The density of antibody-stained KCa3.1 channels (red dots) was higher than the density of KCa3.1 channels stained with bodipy-labeled senicapoc derivative 10b independent of the order of staining modality (Table 3). […] A successful co-staining was only counted when the distance between the signal peak maxima was ≤1 pixel.

[4] = living A549-3R cells, Protocol 2

What does the source list for `CCC1=C(C)C2=C(c3ccc(OCCOCCn4cc(COc5ccc(C(C(N)=O)(c6ccccc6)c6ccc(F)cc6)cc5)nn4)cc3)c3c(C)c(CC)c(C)n3[B-](F)(OC)[N+]2=C1C` (centres unmarked) [10b, 2-{4-[(1-{2-[4-(2,6-Diethyl-4-fluoro-4-methoxy-1,3,5,7-tetramethyl-4-bora-3a,4a-diaza-s-indacen-8-yl)phenoxy]ethoxyethyl}-1,2,3-triazol-4-yl)methoxy]phenyl}-2-(4-flluorophenyl)-2-phenylacetamide]?
staining pattern of living A549-3R cells ([1]; Protocol 2, 10 µM, 10 min, 4 °C): distinct punctate staining pattern; FWHM of fluorescent dots [1, 4]: 4.89 ± 0.50 pixels; density of labeled KCa3.1 channels [1, 4]: 1.11 ± 0.11 KCa3.1 channels per µm^2; staining pattern of fixed A549-3R tumor cells ([2]; 10 µM in PBS, Protocol 1): expected punctate staining pattern of the membrane; FWHM of fluorescent dots ([2]; fixed A549-3R cells, 10 µM): 5.27 ± 0.22 pixels and 5.27 pixels; density of labeled KCa3.1 channels ([2]; fixed A549-3R cells, 10 µM): 1.22 ± 0.26 KCa3.1 channels per µm^2 and 1.22 KCa3.1 channels per µm^2; Average Green (in % ± SD) ([3]; Protocol 7a (antibody first)): 41.5% and 41.5 ± 4.75%; Average Red (in % ± SD) ([3]; Protocol 7a (antibody first)): 58.5 ± 9.60%; Average Green (in % ± SD) ([3]; Protocol 7b (10b first)): 41.4 ± 5.56%; Average Red (in % ± SD) ([3]; Protocol 7b (10b first)): 58.6 ± 8.52%; co-staining of a single KCa3.1 channel with both imaging tools (yellow dots) ([3]; distance between signal peak maxima ≤1 pixel counted as co-staining): hardly observed
